The values below are quoted from earlier work in EP0408749A1, “DERIVATIVES OF 3,18-DIHYDROXY-9,13-EPOXYLABDANE, METHOD OF OBTAINING THEM AND A HEMOSTATIC PHARMACEUTICAL PREPARATION BASED THEREON” (TASHKENTSKY GOSUDARSTVENNY UNIVERSITET IMENI V.I. LENINA, priority 1988, dated 1990).

For this data set, the system named is hemostatic effect. Particulars: prior art statement; cited from earlier work.

As to “3, 15, 16, 18-tetrahydroxy-9,13-epoxylabdane”, the hemostatic effect entry was “weak”.
